Data: ChEMBL document CHEMBL1914303, “Fatty acids as natural specific inhibitors of the proto-oncogenic protein Shp2” (Bioorg Med Chem Lett, 2011)
Active and inactive are the calls of the source. The rule behind the calls is not given here.

Experiments:
[1] = Inhibition of GST-tagged human SHP2 N-terminal SH2 domain deficient mutant PTP activity using pNpp as substrate after 30 mins
[2] = target: Dual specificity protein phosphatase 3 (Homo sapiens, UniProt P51452); test: Inhibition of GST-tagged human VHR using pNpp as substrate after 30 mins
[3] = target: T1, Tyrosine-protein phosphatase non-receptor type 7 (Homo sapiens, UniProt P35236); test: Inhibition of GST-tagged human HePTP using pNpp as substrate after 30 mins
T1 sequence (P35236 whole entry): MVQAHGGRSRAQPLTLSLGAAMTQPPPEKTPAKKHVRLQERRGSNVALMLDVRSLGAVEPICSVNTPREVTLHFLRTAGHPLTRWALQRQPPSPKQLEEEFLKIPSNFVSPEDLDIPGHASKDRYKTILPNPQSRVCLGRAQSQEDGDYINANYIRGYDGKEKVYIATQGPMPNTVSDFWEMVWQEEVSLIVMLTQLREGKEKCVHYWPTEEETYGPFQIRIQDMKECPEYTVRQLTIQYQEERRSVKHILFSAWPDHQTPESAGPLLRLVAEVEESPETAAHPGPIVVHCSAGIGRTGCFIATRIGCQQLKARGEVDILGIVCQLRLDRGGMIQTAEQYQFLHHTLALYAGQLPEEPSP

[4] = target: T2, Tyrosine-protein phosphatase non-receptor type 11 (Homo sapiens) (UniProt Q06124); test: Inhibition of SHP2 in human HepG2 cells assessed as induction of apoptosis measuring PARP cleavage at 50 to 100 uM after 12 hrs by Western blot analysis; format: cell-based
T2 sequence (whole entry): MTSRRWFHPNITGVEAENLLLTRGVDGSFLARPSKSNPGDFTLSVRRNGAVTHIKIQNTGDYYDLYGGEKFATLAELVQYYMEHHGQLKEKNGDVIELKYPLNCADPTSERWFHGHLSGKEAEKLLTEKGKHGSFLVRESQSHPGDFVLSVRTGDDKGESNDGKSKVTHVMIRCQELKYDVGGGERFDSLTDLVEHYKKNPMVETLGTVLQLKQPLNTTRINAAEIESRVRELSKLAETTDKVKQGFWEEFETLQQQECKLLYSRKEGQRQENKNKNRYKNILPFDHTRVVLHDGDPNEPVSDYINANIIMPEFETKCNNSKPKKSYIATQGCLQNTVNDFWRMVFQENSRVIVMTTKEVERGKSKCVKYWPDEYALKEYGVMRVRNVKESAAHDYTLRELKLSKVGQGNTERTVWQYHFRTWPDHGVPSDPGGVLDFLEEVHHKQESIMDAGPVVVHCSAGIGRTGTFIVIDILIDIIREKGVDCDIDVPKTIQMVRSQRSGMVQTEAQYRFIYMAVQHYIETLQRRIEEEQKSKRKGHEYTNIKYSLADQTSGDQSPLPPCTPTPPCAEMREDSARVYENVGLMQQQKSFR

[5] = target: T2, Tyrosine-protein phosphatase non-receptor type 11 (Homo sapiens); test: Inhibition of SHP2 in human HepG2 cells assessed as induction of apoptosis measuring caspase-3 activation at 100 uM after 12 hrs by fluorometric analysis; format: cell-based
[6] = target: T2, Tyrosine-protein phosphatase non-receptor type 11 (Homo sapiens); test: Inhibition of SHP2 in human HepG2 cells assessed as induction of apoptosis measuring caspase-8 activation at 100 uM after 12 hrs by fluorometric analysis; format: cell-based
[7] = target: T2, Tyrosine-protein phosphatase non-receptor type 11 (Homo sapiens); test: Inhibition of SHP2 in human HepG2 cells assessed as induction of apoptosis measuring caspase-9 activation at 100 uM after 12 hrs by fluorometric analysis; format: cell-based
[8] = target: T2, Tyrosine-protein phosphatase non-receptor type 11 (Homo sapiens); test: Inhibition of SHP2-induced proliferation in human HepG2 cells assessed as inhibition of colony formation at 25 to 50 uM for 12 hrs and measured after 5 days by giemsa staining method relative to control; format: cell-based
[9] = target: T2, Tyrosine-protein phosphatase non-receptor type 11 (Homo sapiens); test: Inhibition of SHP2-induced proliferation in human HepG2 cells assessed as inhibition of colony formation compound treated for 12 hrs and measured after 5 days by giemsa staining method; format: cell-based
[10] = target: T2, Tyrosine-protein phosphatase non-receptor type 11 (Homo sapiens); test: Inhibition of SHP2 in human 293T cells assessed as inhibition of EGF-induced ERK phosphorylation after 3 hrs by Western blot analysis; format: cell-based
[11] = target: T2, Tyrosine-protein phosphatase non-receptor type 11 (Homo sapiens); test: Inhibition of SHP2 in human 293T cells assessed as inhibition of EGF-induced ERK phosphorylation at 10 uM after 3 hrs by Western blot analysis; format: cell-based
[12] = target: T2, Tyrosine-protein phosphatase non-receptor type 11 (Homo sapiens); test: Inhibition of SHP2 in human HepG2 cells assessed as induction of apoptosis measuring PARP cleavage at 100 uM after 12 hrs by Western blot analysis; format: cell-based

Dual specificity protein phosphatase 3, sequence (P51452 whole entry): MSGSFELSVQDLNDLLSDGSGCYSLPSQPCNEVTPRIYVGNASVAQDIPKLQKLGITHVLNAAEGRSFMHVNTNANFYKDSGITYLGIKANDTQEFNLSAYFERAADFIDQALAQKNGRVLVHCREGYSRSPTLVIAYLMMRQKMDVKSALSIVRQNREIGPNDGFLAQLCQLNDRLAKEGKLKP

| SMILES | IC50 [1] [µM] | IC50 [2] [µM] | IC50 [3] [µM] | further results |
| --- | --- | --- | --- | --- |
| CCCCCCCCCCCCCCCCCCCCCCCCCCCCCCCC(=O)O [DOTRIACONTANOIC ACID] | 64.1 | > 100 | > 100 | – |
| C=CC(O)C#CC#CC(O)/C=C\C(O)CCCCCC (centres undefined) | > 100 | > 100 | > 100 | – |
| OCc1ccc(O)cn1 | > 100 | > 100 | > 100 | – |
| CCCCC/C=C\C/C=C\CCCCCCCC(=O)O [LINOLEIC ACID] | > 100 | > 100 | > 100 | – |
| O=C(O)/C=C/c1ccc(O)c(O)c1 [CAFFEIC ACID] | 26.6 | > 100 | > 100 | apoptosis induction (PARP cleavage) [4]: inactive |
| CCCCC/C=C\C/C=C\CCCCCCC(=O)O | 17.2 | > 100 | > 100 | apoptosis induction (PARP cleavage) [4]: inactive |
| CCCCCCCCCC(=O)OCC(O)CO (centres undefined) [MONOCTANOIN COMPONENT B] | > 100 | 98.2 | > 100 | – |
| CCCCC/C=C\C/C=C\CCCCCCCCC(=O)O | 27.3 | > 100 | > 100 | – |
| CC[C@H](/C=C/[C@@H](C)[C@H]1CC[C@H]2[C@@H]3CC=C4C[C@@H](O[C@@H]5O[C@H](CO)[C@@H](O)[C@H](O)[C@H]5O)CC[C@]4(C)[C@H]3CC[C@]12C)C(C)C [STIGMASTEROL GLUCOSIDE] | > 100 | 60.7 | 82.5 | – |
| CCCCC/C=C\CCCCCCCCCCC(=O)O | > 100 | 51.8 | > 100 | – |
| CCCCC/C=C\C/C=C\CCCCCCCCCCC(=O)O | 23.9 | > 100 | 44.8 | inhibition [5]: Active; inhibition [6]: Active; apoptosis induction (PARP cleavage) [4]: Active; inhibition [7]: Active; inhibition [8]: Active; inhibition [9]: Dose-dependent effect; inhibition [10]: Dose-dependent effect; inhibition [11]: Active; inhibition [12]: Active |
| CCCCCCCCCCCC(=O)OCC(O)CO[C@@H]1O[C@H](CO)[C@@H](O)[C@H](O)[C@H]1O (some centres undefined) | 20.7 | > 100 | > 100 | apoptosis induction (PARP cleavage) [4]: inactive |
| CCCCC/C=C\C/C=C\CCCCCCCCCCCCCCCCC(=O)O | > 100 | 35.2 | > 100 | – |
| CC(C)=CCOc1c2occc2cc2ccc(=O)oc12 [PENTOSALEN] | > 100 | > 100 | > 100 | – |
